Laboratory results from the supplement of paper PMC11451515.

Assays:
Assay in all cases: AUC of viability dose-response curve (% viability x log10 dose units); higher = less sensitive
Settings in all cases: 48 h
NOMO1 = test system: NOMO1
Method in brief: (§1)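 Over 48 h at 37°C, leukemia cells in 1536-well plates (500 or 1000 cells/well), adapted to each medium, received library compounds in DMSO at 11 threefold doses from 47 μM to 0.79 nM. CellTiter-Glo One luminescence, normalised per plate to DMSO and cell-free wells, was fitted by a four-parameter log-logistic function of log10 dose. The area under the curve was then integrated by trapezoidal rule, after scaling curves above full viability and removing those that failed quality control.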

P12-Ichikawa = test system: P12-Ichikawa
Method in brief: as §1

SEM cells = test system: SEM cells
Method in brief: as §1

[1] = RPMI 5 mM glucose + 10% dialyzed FBS

SMILES | AUC of viability dose-response curve (NOMO1; HPLM + 10% dialyzed FBS) | AUC of viability dose-response curve (NOMO1; RPMI 5 mM glucose + 10% FBS) | AUC of viability dose-response curve (NOMO1; [1]) | AUC of viability dose-response curve (P12-Ichikawa; HPLM + 10% dialyzed FBS) | AUC of viability dose-response curve (P12-Ichikawa; RPMI 5 mM glucose + 10% FBS) | AUC of viability dose-response curve (P12-Ichikawa; [1]) | AUC of viability dose-response curve (SEM cells; HPLM + 10% dialyzed FBS) | AUC of viability dose-response curve (SEM cells; RPMI 5 mM glucose + 10% FBS) | AUC of viability dose-response curve (SEM cells; [1])
CC(C)(Sc1cc(C(C)(C)C)c(O)c(C(C)(C)C)c1)Sc1cc(C(C)(C)C)c(O)c(C(C)(C)C)c1 | 449 | 428 | 436 | 445 | 414 | 405 | 385 | 415 | 409
C[C@]12CC[C@H]3[C@@H](CC[C@@]45O[C@@H]4C(O)=C(C#N)C[C@]35C)[C@@H]1CC[C@@H]2O | 457 | 458 | 456 | 454 | 454 | 454 | 446 | 363 | 416
CC[C@H](CO)Nc1nc(NCc2ccccc2)c2ncn(C(C)C)c2n1 | 432 | 405 | 427 | 432 | 428 | 428 | 438 | 467 | 440
CN1CCC(CNc2ccc3ncc(-c4cccc(OC(F)(F)F)c4)n3n2)CC1 | 429 | 399 | 425 | 449 | 435 | 420 | 329 | 334 | 340
CC[C@H](C)C(=O)O[C@H]1C[C@@H](C)\C=C2\C=C/[C@H](C)[C@H](CC[C@@H]3C[C@@H](O)CC(=O)O3)[C@@H]12 | 437 | 411 | 411 | 415 | 373 | 379 | 384 | 386 | 408
O=c1oc2cc(O)ccc2s1 | 439 | 448 | 467 | 466 | 446 | 454 | 462 | 447 | 453
COc1cccc(OC)c1-c1cc(C(=O)NC2(C(=O)O)C3CC4CC(C3)CC2C4)nn1-c1ccnc2cc(Cl)ccc12 (stereo unspecified) | 447 | 473 | 455 | 456 | 472 | 454 | 467 | 467 | 461
CCOc1cc(C(=O)Nc2ccc(Cl)c(-c3nc4ccccc4[nH]3)c2)cc(OCC)c1OCC | 475 | 410 | 431 | 431 | 418 | 387 | 378 | 392 | 371
Cc1ccc(C(=O)Nc2ccc([S+](=O)([O-])O)c3cc([S+](=O)([O-])O)cc([S+](=O)([O-])O)c23)cc1NC(=O)c1cccc(NC(=O)Nc2cccc(C(=O)Nc3cc(C(=O)Nc4ccc([S+](=O)([O-])O)c5cc([S+](=O)([O-])O)cc([S+](=O)([O-])O)c45)ccc3C)c2)c1 | 350 | 406 | 396 | 390 | 392 | 381 | 414 | 393 | 373
O=C(Nc1ccccc1)Nc1ccc(-c2ccc(C(=O)[C@@H]3CCC[C@H]3C(=O)O)cc2)cc1 | 406 | 441 | 409 | 444 | 444 | 443 | 476 | 467 | 468
CCC(=O)N1CCN(CC1)C2=C(C=C(C=C2)N3C(=O)\C=C/C4=C3C5=CC(=CC=C5N=C4)C6=CN=C7C=CC=CC7=C6)C(F)(F)F | 376 | 388 | 352 | 406 | 328 | 347 | 286 | 297 | 300
C=C1CCC2[C@](C)(CO)C(O)CC[C@]2(C)C1C/C=C1/C(=O)OCC1O (stereo partly specified) | 395 | 459 | 453 | 454 | 457 | 448 | 439 | 383 | 420
OC[C@H]1OC(O)C[C@@H](O)[C@@H]1O (stereo partly specified) | 463 | 466 | 466 | 463 | 470 | 475 | 439 | 441 | 447
OC1CCC(CC1)N2\C=N/C3=C(C2=N)C(=C([N]3CC4=CC=CC=C4)C5=CC=CC=C5)C6=CC=CC=C6 (stereo unspecified) | 399 | 402 | 403 | 437 | 395 | 408 | 329 | 323 | 353
CCc1nc(N)nc(N)c1-c1ccc(Cl)cc1 | 381 | 421 | 427 | 352 | 427 | 389 | 381 | 392 | 399
C[C@@H](Cc1cc2c(c(C(N)=O)c1)N(CCCO)CC2)NCCOc1ccccc1OCC(F)(F)F | 457 | 458 | 466 | 472 | 472 | 472 | 438 | 465 | 463
O=C(O)c1cccnc1 | 369 | 402 | 385 | 408 | 426 | 403 | 330 | 360 | 356
CCOc1ccccc1N/N=C1/C(=O)N(c2nc(-c3ccccc3)cs2)N=C1C | 428 | 447 | 419 | 444 | 467 | 450 | 368 | 371 | 358
O=C1\C=C(OC2=C(C=CC=C12)C3=CC=CC4=C3SC5=C4C=CC=C5)\N6CCOCC6 | 474 | 464 | 467 | 471 | 456 | 469 | 446 | 425 | 432
